Data as given in US8653087B2, “Pyrido [5, 4-D] pyrimidines as cell proliferation inhibitors” (Boehringer Ingelheim International GmbH, priority 2008, dated 2014).

Each compound was assayed against B-Raf (V600E)-kinase (Homo sapiens (Human), UniProt P15056, V600E) (assay: Kinase test B-RAF (V600E)). Details: not given.
Format: biochemical
How it was run: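 B-Raf (V600E) (0.5 ng) preincubated with compound 24 h at RT (5% DMSO), then reacted 60 min at RT with 250 μM ATP and biotinylated MEK1 as substrate. Phospho-MEK (Ser217/221) captured on streptavidin and detected by europium time-resolved fluorescence; IC50 from dose-response curves.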

Sequence of B-Raf (V600E)-kinase (P15056 whole entry V600E): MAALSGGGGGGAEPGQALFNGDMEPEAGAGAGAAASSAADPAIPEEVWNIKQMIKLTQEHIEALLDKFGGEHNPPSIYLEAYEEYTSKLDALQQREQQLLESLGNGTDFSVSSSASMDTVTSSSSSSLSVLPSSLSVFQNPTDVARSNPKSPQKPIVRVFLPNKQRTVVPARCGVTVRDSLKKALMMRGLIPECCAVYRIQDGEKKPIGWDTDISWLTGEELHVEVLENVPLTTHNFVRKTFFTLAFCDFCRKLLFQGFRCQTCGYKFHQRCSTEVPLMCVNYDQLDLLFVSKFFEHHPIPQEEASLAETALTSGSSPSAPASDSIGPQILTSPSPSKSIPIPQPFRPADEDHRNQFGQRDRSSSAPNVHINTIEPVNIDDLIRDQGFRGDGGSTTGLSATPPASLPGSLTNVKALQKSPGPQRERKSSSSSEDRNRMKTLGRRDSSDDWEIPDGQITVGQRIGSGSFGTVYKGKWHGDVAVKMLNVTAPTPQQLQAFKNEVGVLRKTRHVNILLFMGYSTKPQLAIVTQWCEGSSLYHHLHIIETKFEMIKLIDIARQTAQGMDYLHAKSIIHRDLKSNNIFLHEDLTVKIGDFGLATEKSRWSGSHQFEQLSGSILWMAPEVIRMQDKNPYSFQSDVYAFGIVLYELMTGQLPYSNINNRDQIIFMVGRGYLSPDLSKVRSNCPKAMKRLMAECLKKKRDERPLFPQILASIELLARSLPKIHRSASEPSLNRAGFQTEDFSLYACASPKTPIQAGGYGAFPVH

SMILES | IC50
Cc1ccc(C(=O)Nc2ccc(C#N)c(C(F)(F)F)c2)cc1Nc1ncnc2cnc(N3CCN(C)CC3)nc12 [III-311] | 2 nM

Same assay, conditions: B-RAF (V600E) kinase test, 250 μM ATP

SMILES | IC50
COc1ccc(C(F)(F)F)cc1NC(=O)c1ccc(C)c(Nc2ncnc3cnc(N4CCN(C)CC4)nc23)c1 [III-299] | 5 nM
Cc1ccc(C(=O)Nc2ccc(Cl)c(C(F)(F)F)c2)cc1Nc1ncnc2cnc(N3CCN(C)CC3)nc12 [III-300] | 4 nM
Cc1ccc(C(=O)Nc2cccc(OC(F)(F)F)c2)cc1Nc1ncnc2cnc(N3CCN(C)CC3)nc12 [III-301] | < 1 nM
Cc1ccc(C(=O)NCc2ccc(C(C)(C)C)cc2)cc1Nc1ncnc2cnc(N3CCOCC3)nc12 [III-302] | 115 nM
Cc1ccc(C(=O)Nc2cccc(S(=O)(=O)N(C)C)c2)cc1Nc1ncnc2cnc(N3CCN(C)CC3)nc12 [III-303] | 7 nM
COc1ccc(C(F)(F)F)cc1NC(=O)c1ccc(C)c(Nc2ncnc3cnc(N4CCOCC4)nc23)c1 [III-304] | < 1 nM
Cc1ccc(C(=O)Nc2cccc(C(C)(C)C#N)c2)cc1Nc1ncnc2cnc(N3CCN(C)CC3)nc12 [III-305] | 2 nM
COc1ccc(C(C)(C)C)cc1NC(=O)c1ccc(C)c(Nc2ncnc3cnc(N4CCOCC4)nc23)c1 [III-306] | 4 nM
Cc1ccc(C(=O)NCc2ccc(C(F)(F)F)cc2)cc1Nc1ncnc2cnc(N3CCOCC3)nc12 [III-307] | 114 nM
Cc1ccc(C(=O)NCc2cccc(C(C)(C)C)c2)cc1Nc1ncnc2cnc(N3CCCCC3)nc12 [III-308] | 47 nM
Cc1ccc(C(=O)Nc2cccc(N(C)C)c2)cc1Nc1ncnc2cnc(N3CCOCC3)nc12 [III-309] | 4 nM
Cc1ccc(C(=O)NCc2cccc(C(C)(C)C)c2)cc1Nc1ncnc2cnc(N3CCN(C)CC3)nc12 [III-310] | 50 nM
Cc1ccc(C(=O)Nc2nnc(C(F)(F)F)s2)cc1Nc1ncnc2cnc(N3CCOCC3)nc12 [III-313] | 200 nM
Cc1ccc(C(=O)Nc2ccc(F)c(C(F)(F)F)c2)cc1Nc1ncnc2cnc(N3CCOCC3)nc12 [III-314] | 9 nM
Cc1ccc(C(=O)Nc2cccc(C(F)(F)F)c2)cc1Nc1ncnc2cnc(N3CCOCC3)nc12 [III-315] | < 1 nM
CN(C)CCN(C)c1ncc2ncnc(Nc3cc(C(=O)Nc4cc(C(C)(C)C)on4)ccc3F)c2n1 [III-316] | 3 nM
CN(CCN1CCCC1)c1ncc2ncnc(Nc3cc(C(=O)Nc4cc(C(C)(C)C)on4)ccc3F)c2n1 [III-317] | 14 nM
CN1CCN(c2ncc3ncnc(Nc4cc(C(=O)Nc5cc(C(C)(C)C)on5)ccc4F)c3n2)CC1 [III-318] | 2 nM
Cc1ccc(C(=O)Nc2cccc(S(=O)(=O)N(C)C)c2)cc1Nc1ncnc2cnc(N3CCOCC3)nc12 [III-320] | 2 nM
Cc1ccc(C(=O)Nc2cc(C(F)(F)F)ccn2)cc1Nc1ncnc2cnc(N3CCOCC3)nc12 [III-321] | < 1 nM
Cc1ccc(C(=O)Nc2cccc(C(C)(C)C#N)c2)cc1Nc1ncnc2cnc(N3CCOCC3)nc12 [III-322] | 1 nM
COc1c(NC(=O)c2ccc(C)c(Nc3ncnc4cnc(N5CCOCC5)nc34)c2)cc(C(C)(C)C)cc1NS(C)(=O)=O [III-323] | 11 nM
Cc1ccc(C(=O)NCc2cccc(C(F)(F)F)c2)cc1Nc1ncnc2cnc(N3CCOCC3)nc12 [III-324] | 55 nM
Cc1ccc(C(=O)NC2CCCCC2)cc1Nc1ncnc2cnc(N3CCOCC3)nc12 [III-325] | 1400 nM
Cc1ccc(C(=O)Nc2ccccc2)cc1Nc1ncnc2cnc(N3CCOCC3)nc12 [III-326] | 292 nM

SMILES | IC50
Cc1ccc(C(=O)NCc2cccc(C(C)(C)C)c2)cc1Nc1ncnc2cnc(N3CCOCC3)nc12 [III-327] | 56 nM
Cc1ccc(C(=O)Nc2nnc(C(F)(F)F)s2)cc1Nc1ncnc2cnc(N3CCCCC3)nc12 [III-328] | 442 nM
Cc1ccc(C(=O)Nc2ccc(F)c(C(F)(F)F)c2)cc1Nc1ncnc2cnc(N3CCCCC3)nc12 [III-329] | 17 nM
Cc1ccc(C(=O)Nc2cccc(C(F)(F)F)c2)cc1Nc1ncnc2cnc(N3CCCCC3)nc12 [III-330] | 6 nM
Cc1ccc(C(=O)Nc2ccc(Cl)c(C(F)(F)F)c2)cc1Nc1ncnc2cnc(N3CCCCC3)nc12 [III-331] | 10 nM
Cc1ccc(C(=O)Nc2cccc(OC(F)(F)F)c2)cc1Nc1ncnc2cnc(N3CCCCC3)nc12 [III-332] | 4 nM
Cc1ccc(C(=O)Nc2ccc(C#N)c(C(F)(F)F)c2)cc1Nc1ncnc2cnc(N3CCCCC3)nc12 [III-333] | 56 nM
Cc1ccc(C(=O)Nc2cccc(S(=O)(=O)N(C)C)c2)cc1Nc1ncnc2cnc(N3CCCCC3)nc12 [III-334] | 10 nM
Cc1ccc(C(=O)Nc2cc(C(F)(F)F)ccn2)cc1Nc1ncnc2cnc(N3CCCCC3)nc12 [III-335] | 8 nM
Cc1ccc(C(=O)NCc2cccc(C(C)(C)C)c2)cc1Nc1ncnc2cnc(N3CCCN(C)CC3)nc12 [III-336] | 140 nM
Cc1ccc(C(=O)Nc2ccc(Cl)c(C(F)(F)F)c2)cc1Nc1ncnc2cnc(N3CCOCC3)nc12 [III-337] | 2 nM
COc1c(NC(=O)c2ccc(C)c(Nc3ncnc4cnc(N5CCCCC5)nc34)c2)cc(C(C)(C)C)cc1NS(C)(=O)=O [III-338] | 41 nM
Cc1ccc(C(=O)Nc2cccc(C(F)(F)F)c2)cc1Nc1ncnc2cnc(N3CCNCC3)nc12 [III-339] | 1 nM
Cc1ccc(C(=O)Nc2ccc(C#N)c(C(F)(F)F)c2)cc1Nc1ncnc2cnc(N3CCOCC3)nc12 [III-340] | 4 nM
Cc1ccc(C(=O)Nc2cccc(C(C)(C)C)c2)cc1Nc1ncnc2cnc(N3CCNCC3)nc12 [III-341] | < 1 nM
Cc1ccc(C(=O)Nc2nnc(C(F)(F)F)s2)cc1Nc1ncnc2cnc(N3CCNCC3)nc12 [III-342] | 2120 nM
COc1ccc(C(C)(C)C)cc1NC(=O)c1ccc(C)c(Nc2ncnc3cnc(N4CCNCC4)nc23)c1 [III-343] | 2 nM
Cc1ccc(C(=O)Nc2cccc(S(=O)(=O)N(C)C)c2)cc1Nc1ncnc2cnc(N3CCNCC3)nc12 [III-344] | 7 nM
Cc1ccc(C(=O)Nc2cc(C(F)(F)F)ccn2)cc1Nc1ncnc2cnc(N3CC[C@H](F)C3)nc12 [III-345] | 1 nM
COc1ccc(C(F)(F)F)cc1NC(=O)c1ccc(C)c(Nc2ncnc3cnc(NC4CCOC4)nc23)c1 (centres unmarked) [III-347] | 1 nM
Cc1ccc(C(=O)Nc2cc(C(C)(C)C)nn2C)cc1Nc1ncnc2cnc(NC3CCOC3)nc12 (centres unmarked) [III-348] | < 1 nM
Cc1ccc(C(=O)Nc2cccc(C(F)(F)F)c2)cc1Nc1ncnc2cnc(NC3CCOC3)nc12 (centres unmarked) [III-349] | < 1 nM
Cc1ccc(C(=O)Nc2cccc(C(C)(C)C)c2)cc1Nc1ncnc2cnc(NC3CCOC3)nc12 (centres unmarked) [III-350] | < 1 nM
CCN1CCN(c2cc(NC(=O)c3ccc(C)c(Nc4ncnc5cnc(NC6CCOC6)nc45)c3)cc(C(F)(F)F)c2)CC1 (centres unmarked) [III-351] | < 1 nM
Cc1ccc(C(=O)Nc2cc(C(C)(C)C)n[nH]2)cc1Nc1ncnc2cnc(NC3CCOC3)nc12 (centres unmarked) [III-353] | < 1 nM

SMILES | IC50
Cc1ccc(C(=O)n2nc(C(C)(C)C)cc2N)cc1Nc1ncnc2cnc(NC3CCOC3)nc12 (centres unmarked) [III-354] | 20 nM
Cc1ccc(C(=O)Nc2cc(C(F)(F)F)ccn2)cc1Nc1ncnc2cnc(NC3CCOC3)nc12 (centres unmarked) [III-355] | < 1 nM
COc1ccc(NC(=O)c2ccc(C)c(Nc3ncnc4cnc(NC5CCOC5)nc34)c2)cc1C(F)(F)F (centres unmarked) [III-356] | < 1 nM
Cc1ccc(C(=O)Nc2cc(C(C)(C)C)on2)cc1Nc1ncnc2cnc(NC3CCOC3)nc12 (centres unmarked) [III-357] | < 1 nM
COCCNc1ncc2ncnc(Nc3cc(C(=O)Nc4cc(C(C)(C)C)on4)ccc3C)c2n1 [III-358] | 1 nM
Cc1ccc(C(=O)Nc2cc(C(C)(C)C)on2)cc1Nc1ncnc2cnc(NCC3CCOC3)nc12 (centres unmarked) [III-359] | 2 nM
Cc1ccc(C(=O)Nc2cc(C(C)(C)C)on2)cc1Nc1ncnc2cnc(N(C)CC3CCOC3)nc12 (centres unmarked) [III-360] | 3 nM
Cc1ccc(C(=O)Nc2cc(C(C)(C)C)on2)cc1Nc1ncnc2cnc(NCC3CCCCO3)nc12 (centres unmarked) [III-361] | 2 nM
COC[C@@H]1CCCN1c1ncc2ncnc(Nc3cc(C(=O)Nc4cc(C(C)(C)C)on4)ccc3C)c2n1 [III-362] | 3 nM
Cc1ccc(C(=O)Nc2cc(C(C)(C)C)on2)cc1Nc1ncnc2cnc(N3CCC[C@H]3CO)nc12 [III-363] | < 1 nM
Cc1ccc(C(=O)Nc2cc(C(C)(C)C)on2)cc1Nc1ncnc2cnc(N(C)C3CCOC3)nc12 (centres unmarked) [III-365] | 1 nM
Cc1ccc(C(=O)Nc2cc(C(C)(C)C)on2)cc1Nc1ncnc2cnc(N3CC(F)(F)C3)nc12 [III-366] | 6 nM
Cc1cn(-c2ncc3ncnc(Nc4cc(C(=O)Nc5cc(C(C)(C)C)on5)ccc4C)c3n2)cn1 [III-367] | 2 nM
Cc1ccc(C(=O)Nc2cc(C(C)(C)C)on2)cc1Nc1ncnc2cnc(N3C[C@@H](C)O[C@@H](C)C3)nc12 [III-368] | 14 nM
Cc1ccc(C(=O)Nc2cc(C(C)(C)C)on2)cc1Nc1ncnc2cnc(N3CCCOCC3)nc12 [III-369] | 2 nM
Cc1ccc(C(=O)Nc2cc(C(C)(C)C)on2)cc1Nc1ncnc2cnc(N3CCN(CCN4CCOCC4)CC3)nc12 [III-370] | 1 nM
Cc1cc(C(=O)Nc2cc(C(C)(C)C)nn2C)cc(Nc2ncnc3cnc(N4CCOCC4)nc23)c1C [III-372] | 5 nM
Cc1cc(C(=O)Nc2cc(C(C)(C)C)nn2C)cc(Nc2ncnc3cnc(N4CCN(C)CC4)nc23)c1C [III-373] | 8 nM
Cn1nc(C(C)(C)C)cc1NC(=O)c1cc(Cl)cc(Nc2ncnc3cnc(N4CCCC4)nc23)c1Cl [III-374] | 2000 nM
Cn1nc(C(C)(C)C)cc1NC(=O)c1cc(Cl)cc(Nc2ncnc3cnc(N4CCOCC4)nc23)c1Cl [III-375] | 2000 nM
Cn1nc(C(C)(C)C)cc1NC(=O)c1cc(Cl)cc(Nc2ncnc3cnc(N4CCOCC4)nc23)c1 [III-376] | 7 nM
Cn1nc(C(C)(C)C)cc1NC(=O)c1cc(Cl)cc(Nc2ncnc3cnc(N4CCCC4)nc23)c1 [III-377] | 4 nM
CN1CCN(c2ncc3ncnc(Nc4cc(Cl)cc(C(=O)Nc5cc(C(C)(C)C)nn5C)c4)c3n2)CC1 [III-378] | 8 nM
